Values of other authors, collected in patent US20090088578A1, “NUCLEAR MAGNETIC RESONANCE IMAGING OF SELECTIVE SMALL MOLECULE DRUGS AS CONTRAST AGENTS” (priority 2007, published 2009).

Biological target: T1, aldehyde dehydrogenase 1 (Homo sapiens, UniProt P00352)
T1 sequence (P00352 1-501): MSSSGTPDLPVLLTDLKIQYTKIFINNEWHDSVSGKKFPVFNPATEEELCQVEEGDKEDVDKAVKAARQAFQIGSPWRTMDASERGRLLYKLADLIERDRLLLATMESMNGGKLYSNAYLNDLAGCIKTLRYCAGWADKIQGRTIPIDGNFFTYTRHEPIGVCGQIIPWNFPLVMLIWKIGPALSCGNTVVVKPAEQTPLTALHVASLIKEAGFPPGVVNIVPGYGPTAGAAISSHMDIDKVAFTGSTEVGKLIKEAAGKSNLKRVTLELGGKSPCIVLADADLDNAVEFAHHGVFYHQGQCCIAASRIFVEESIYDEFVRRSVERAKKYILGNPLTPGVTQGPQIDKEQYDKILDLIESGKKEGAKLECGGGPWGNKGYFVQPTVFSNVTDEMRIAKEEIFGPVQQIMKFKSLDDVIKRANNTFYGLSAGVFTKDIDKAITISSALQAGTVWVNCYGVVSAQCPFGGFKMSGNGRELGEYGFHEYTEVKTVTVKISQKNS
Settings: one of its two known protein targets

For `CCN(CC)CCCC(C)Nc1ccnc2cc(Cl)ccc12` (stereo not shown) [Chloroquine, chloroquine], the “affinity for aldehyde dehydrogenase 1” value is listed as “low affinity”.
